The test system of data set [1] is Leucosporidium antarcticum strain PI12. Description: Growth of the Antarctic isolate on solid media with antibiotics. In kind it is cell-based. The note with it: 10 days at 4° C. The procedure: Antarctic microorganism isolated strain was grown on different types of solid media (nutrient agar, sabouroud dextrose agar and potato dextrose agar) and several antibiotics for 10 days at 4° C. and the culture characteristics (colony colour, shape, texture) were determined. Simple staining was performed to identify the cell morphology, arrangement and size of the psychrophilic isolate PI12. Scanning electron microscopy (SEM) and transmission electron microscopy (TEM) were also conducted to study the surface features and the internal ultrastructure in thin sections of the PI12 cells. […] The growth for this microorganism was best at 4° C. and decreased through the temperature range tested (4° C.-20° C.) but no growth at over 20° C. […] The Antarctic microorganism strain PI12 was grown and screened qualitatively for the protease production on skim milk agar. The plate was incubated at 4° C. for 10 days. Protease was excreted out of the cells into the surrounding media, catalyzing the breakdown of casein and formed clearing zones around the growth area.

For the next data set, the system named is azocasein. Kind of data set: Protease activity assay with azocasein as substrate (modified method of Brock et al.), culture supernatants. In kind it is biochemical. The note with it: GpPro2 20.3 U/mL versus wild-type 1.0 U/mL. The procedure: After 10 days of incubation, the supernatant was assayed for protease activity. Protease activity was determined by the modified method of Brock et al. (1982). Azocasein (0.5%, 1 mL) was dissolved in 0.1 M Tris-HCl-2 mM CaCl2 pH 7 was pipetted into vials and pre-incubated at 4° C. The reaction was initiated by addition of 100 μL of enzyme solution for 30 min (unless stated otherwise). An equal volume of 10% (w/v) trichloroacetic acid (TCA) was added to terminate the reaction and the mixture was allowed to stand at room temperature for 30 min before centrifugation in eppendorf microcentrifuge at 13,000×g for 10 min. The supernatant was removed and mixed with an equal volume of 1 N NaOH. The absorbance was read at 450 nm using UV/Visible spectrophotometer Ultraspec 2100 pro (Amersham Biosciences, USA). One unit of azocaseinase activity was defined as the amount of enzyme activity which produces an absorbance change of 0.001 per min at 4° C. under the standard assay condition. For control, the enzyme was added at the end of the incubation period. […]
Assay activity of recombinant PI12 protease was determined by the modified method of Brock et a (1982) the assay activity for recombinant PI12 protease was performed at 15° C.

Data set [2] can be described thus: Temperature profile and storage stability of the protease activity. In kind it is biochemical.

On to `O=C(N[C@H](CO)[C@H](O)c1ccc([N+](=O)[O-])cc1)C(Cl)Cl` [chloramphenicol], for which the “resistance of the microorganism toward antibiotic” value in data set [1] is on record as “resistance”.

As to `CN[C@@H]1[C@H](O[C@H]2[C@H](O[C@H]3[C@H](O)[C@@H](O)[C@H](N=C(N)N)[C@@H](O)[C@@H]3N=C(N)N)O[C@@H](C)[C@]2(O)C=O)O[C@@H](CO)[C@H](O)[C@H]1O` [streptamycin], the “resistance of the microorganism toward antibiotic” value in data set [1] was “resistance”. For `CC1(C)S[C@@H]2[C@H](NC(=O)[C@H](N)c3ccccc3)C(=O)N2[C@H]1C(=O)O` [ampicillin], the “resistance of the microorganism toward antibiotic” value in data set [1] is reported as “resistance”.

B1: recombinant PI12 protease: cold-adapted serine protease of L. antarcticum PI12 (SEQ ID NO: 2) expressed in Pichia pastoris (protein, listed as Leucosporidium antarcticum)
chain: MLFLPVLLLLLPGVTAFLNPVTNRATNAISSTQYLSNAYILELDLSTPGLVKRDSTPDSILEDVLTSVGRNGIKYQLRHRFISPTLFHGASITVPPGISRSQIASLRGIKRVWPVRKFSRPSAVVDADGGGSGFSGSPIKAALMGVKELGKRANAYAGDTFGPHVMTGVNETHEAGLLGAGIKIGVLDTGVDYLNPILGGCFGPGCHMSFGYDLVGDDYDGDNAPVPDVDPFASCDPHGTHVTGIIGALPNAFGFTGVAPAATLGHYRVFGCTGFVGEDIILAGLMRGVEDNCNVLTLSLGGPGGWVKGTPASILIDQIEAQGILVTVATGNSGAEGMFFSESPASTINGLSIASTDVTDLIAYNATVSGQPAIPYLSATPLNVVANSFRVHFTSTDPNNPVDACSPLPAGAPDFANYVTVVQRGTCTFVTKYQNVLNAGGKIVLLYNSEGAGNLPYLTPNGVGIDAVAGLRRSDGLKLLSYYQNANKRLTLRFPKGKIVAGLTDTITGGLISGYSTFGPTNDLYGQPTLSAPGGNILSTFPLSEGGVAVISGTSMSCPFVAGSAAVLMAARASENLTPLEIRSLLTTTAKLTPVSLLGSTPLVSVIRQGGGLVQVAKALAAKTLISPHELLLNDTANANYVQTIKIKNTNSWAMKYTFSSAVAQGLGTFDASGDILPTLDPVAVSGAQATVAFNTRILSVAPGATGSVVATITPPVLPVADAARFPIFSGWIRVNGQGARDSSRNEAYTVPYFGLAAKMIDMQVLDTTETIYGPGYAYPFVIDDAIGDIQSTTTSYSRNLGPTVFARFATGTLHYSLDLVLADIAFTPTYPNSSPATRFVKRSLTQHTSAASHLAKRRVSIATINPKATLVADRQLHSDVPIEGNIFTQPFTGRDYLVDAAPTGSTDRTVTFNGQYAENGLVRTAVTGTSYRFLLRALKISGDAMYEDQYESWLSLPFSFRA
In the case of B1, the “recombinant protease activity relative to that produced by wild-type host” value in the data set with azocasein came to 20.3 fold.

B2: Cold-adapted protease PI12: protease from Leucosporidium antarcticum strain PI12 (NCYC 3391), amino acid sequence SEQ ID NO: 2, GenBank CAQ76821 (protein, listed as Leucosporidium antarcticum)
chain: B1 chain
B2: the optimum temperature in data set [2] is 4 [deg.] C. Besides, in data set [2] (after incubating the enzyme at 4[deg.] C. for about 10 days), the enzyme activity retained entry is listed as “One hundred”.

The values are drawn from US20130273546A1, “LOW TEMPERATURE ENZYME AND METHOD THEREOF” (UNIVERSITI PUTRA MALAYSIA, priority 2009, published 2013).
